Source: the NIST ThermoML archive (doi:10.1016/j.fluid.2012.03.021)
Numbers after ± are expanded uncertainties.

Details: Liquid; for Critical pressure: Direct measurement; for Critical temperature: Pulse Heating

Row | Critical pressure | Critical temperature | SMILES
1 | 3280 ± 260 kPa | 847 ± 26 K | CC(=O)c1ccc[cH-]1.[Fe+2].c1cc[cH-]c1 [acetylferrocene]
2 | 1590 ± 120 kPa | 886 ± 26 K | O=C(c1ccccc1)c1ccc[cH-]1.[Fe+2].c1cc[cH-]c1 [benzoylferrocene]
3 | 2180 ± 180 kPa | 784 ± 24 K | CCCC[c-]1cccc1.[Fe+2].c1cc[cH-]c1 [butylferrocene]
4 | 3610 ± 200 kPa | 785 ± 16 K | [CH]1C=CC=C1.[CH]1C=CC=C1.[Fe] [ferrocene]
